Measured values as given in patent US20140011682A1, “USE OF OPEN-CHAIN CARBOXYLIC ACIDS, CARBONIC ESTERS, CARBOXAMIDES AND CARBONITRILES OF ARYL, HETEROARYL AND BENZYLSULFONAMIDE OR THE SALTS THEREOF FOR IMPROVING THE STRESS TOLERANCE IN PLANTS” (BAYER INTELLECTUAL PROPERTY GMBH, priority 2010, published 2014).

How the values were obtained:
Assay type in all cases: in vivo
Settings in all cases: mean of three results
[1] = test system: ZEAMX=Zea mays; assay: Drought stress test on crop plants in the greenhouse, spray application, Zea mays
Description: (§1) Seeds of monocotyledonous and dicotyledonous crop plants were placed in sandy loam in wood-fiber pots, covered with soil and cultivated in a greenhouse under good growth conditions. The test plants were treated at the early leaf stage (BBCH10 BBCH13). To ensure uniform water supply before commencement of stress, the potted plants were supplied with the maximum amount of water immediately beforehand by dam irrigation and, after application, transferred in plastic inserts in order to prevent subsequent, excessively rapid drying. The inventive compounds, formulated in the form of wettable powders (WP), wettable granules (WG), suspension concentrates (SC) or emulsion concentrates (EC), were sprayed onto the green parts of the plants as an aqueous suspension at an equivalent water application rate of 600 l/ha with addition of 0.2% wetting agent (agrotin). Substance application is followed immediately by stress treatment of the plants (cold or drought stress). For cold stress treatment, the plants were kept under the following controlled conditions:
(§2) Drought stress was induced by gradual drying out under the following conditions:
(§3) “day”: 14 hours with illumination at 26° C.
(§4) “night”: 10 hours without illumination at 18° C.
(§5) The duration of the respective stress phases was guided mainly by the state of the untreated, stressed control plants and thus varied from crop to crop. It was ended (by re-irrigating or transferring it to a greenhouse with good growth conditions) as soon as irreversible damage was observed on the untreated, stressed control plants. In the case of dicotyledonous crops, for example oilseed rape and soybeans, the duration of the drought stress phase varied between 3 and 5 days, in the case of monocotyledonous crops, for example wheat, barley or corn, between 6 and 10 days. The duration of the cold stress phase varied between 12 and 14 days. The end of the stress phase was followed by an approx. 5-7-day recovery phase, during which the plants were once again kept under good growth conditions in a greenhouse. In order to rule out any influence of the effects observed by any fungicidal action of the test compounds, it is additionally ensured that the tests proceed without fungal infection and without infection pressure.
(§6) After the recovery phase had ended, the intensities of damage were rated in visual comparison to untreated, unstressed controls of the same age (in the case of drought stress) or the same growth stage (in the case of cold stress). The intensity of damage was first assessed as a percentage (100%=plants have died, 0%=like control plants). These values were then used to calculate the efficacy of the test compounds (=percentage reduction in the intensity of damage as a result of substance application) by the following formula: […]
(§7) DVus: damage value of the untreated, stressed control
(§8) DVts: damage value of the plants treated with test compound
(§9) The tables below list mean values in each case from three results of the same test.

[2] = test system: BRSNS=Brassica napus; assay: Drought stress test on crop plants in the greenhouse, spray application, Brassica napus
Description: as §1, §2, §3, §4, §5, §6, §7, §8, §9

[3] = test system: TRZAS=Triticum aestivum; assay: Drought stress test on crop plants in the greenhouse, spray application, Triticum aestivum
Description: as §1, §2, §3, §4, §5, §6, §7, §8, §9

| SMILES | EF (BRSNS): Efficacy = percentage reduction in the intensity of damage ([2]; dosage 250 g/ha) [%] | EF (TRZAS) Efficacy ([3]; dosage 250 g/ha) [%] | EF (TRZAS) Efficacy ([3]; dosage 25 g/ha) [%] | further results |
| --- | --- | --- | --- | --- |
| CC(C)CC(C)(C#N)NS(=O)(=O)c1ccc(Br)cc1 (centres unmarked) [I.1-14] |  |  |  | EF (ZEAMX): Efficacy = percentage reduction in the intensity of damage ([1]; dosage 250 g/ha): >5%; EF (BRSNS): Efficacy = percentage reduction in the intensity of damage ([2]; dosage 25 g/ha): >5% |
| CCOC(=O)CC(NS(=O)(=O)c1ccc(Br)cc1)C(C)C (centres unmarked) [I.1-28] |  |  |  | EF (BRSNS): Efficacy = percentage reduction in the intensity of damage ([2]; dosage 2.5 g/ha): >5% |
| COC(=O)CC(NS(=O)(=O)c1ccc(Br)cc1)C(C)C (centres unmarked) [I.1-29, Methyl 3-{[(4-bromophenyl)sulfonyl]amino}-4-methylpentanoate] | >5 |  |  | EF (ZEAMX): Efficacy = percentage reduction in the intensity of damage ([1]; dosage 250 g/ha): >5% |
| CCOC(=O)CC(NS(=O)(=O)c1ccc(Br)cc1)c1ccccc1Cl (centres unmarked) [I.1-33] |  | >5 |  | EF (BRSNS): Efficacy = percentage reduction in the intensity of damage ([2]; dosage 25 g/ha): >5% |
| COC(=O)CC(NS(=O)(=O)c1ccc(Br)cc1)c1ccc(Br)cc1 (centres unmarked) [I.1-35] |  |  | >5 | EF (BRSNS): Efficacy = percentage reduction in the intensity of damage ([2]; dosage 2.5 g/ha): >5% |
| COC(=O)CC(NS(=O)(=O)c1ccc(Br)cc1)C(=O)OC (centres unmarked) [I.1-63] | >5 |  | >5 |  |
| COC(=O)C(CC(C)C)NS(=O)(=O)c1ccc(Br)cc1 (centres unmarked) [I.1-77] | >5 |  |  |  |
| CCOC(=O)CC(NS(=O)(=O)c1ccc(Br)cc1)C(F)(F)F (centres unmarked) [I.1-103] | >5 |  | >5 |  |
| CCOC(=O)CC(CC(C)C)NS(=O)(=O)c1cccc2ccccc12 (centres unmarked) [I.2-62] |  | >5 |  | EF (ZEAMX): Efficacy = percentage reduction in the intensity of damage ([1]; dosage 25 g/ha): >5% |
| COC(=O)C(Cc1cn(C)cn1)NS(=O)(=O)c1cccc2ccccc12 (centres unmarked) [I.2-74] | >5 |  | >5 |  |
| COC(=O)C(NS(=O)(=O)c1cccc2ccccc12)C(C)C (centres unmarked) [I.2-75] |  |  | >5 | EF (ZEAMX): Efficacy = percentage reduction in the intensity of damage ([1]; dosage 250 g/ha): >5%; EF (BRSNS): Efficacy = percentage reduction in the intensity of damage ([2]; dosage 25 g/ha): >5% |
| COC(=O)C(CC(C)C)NS(=O)(=O)c1cccc2ccccc12 (centres unmarked) [I.2-77] |  | >5 |  | EF (BRSNS): Efficacy = percentage reduction in the intensity of damage ([2]; dosage 2.5 g/ha): >5% |
| C#CCC(NS(=O)(=O)c1cccc2ccccc12)C(=O)OC (centres unmarked) [I.2-86] | >5 | >5 |  |  |
| CCOC(=O)CC(NS(=O)(=O)c1ccc(Br)c2ccccc12)C(C)C (centres unmarked) [I.3-28] | >5 | >5 |  |  |
| CC(C)(C)OC(=O)CCCNS(=O)(=O)c1ccc(Br)c2ccccc12 [I.3-70] |  |  |  | EF (BRSNS): Efficacy = percentage reduction in the intensity of damage ([2]; dosage 2.5 g/ha): >5% |
| COC(=O)C(NS(=O)(=O)c1ccc(Br)c2ccccc12)C(C)C (centres unmarked) [I.3-75] | >5 |  | >5 |  |
| COC(=O)C(Cc1ccc(F)cc1)NS(=O)(=O)c1ccc(Br)c2ccccc12 (centres unmarked) [I.3-90] |  |  | >5 | EF (BRSNS): Efficacy = percentage reduction in the intensity of damage ([2]; dosage 25 g/ha): >5% |
| CCOC(=O)CC(NS(=O)(=O)c1ccc(Br)c2ccccc12)C(F)(F)F (centres unmarked) [I.3-103] |  |  | >5 | EF (BRSNS): Efficacy = percentage reduction in the intensity of damage ([2]; dosage 25 g/ha): >5% |
| COC(=O)C(Cc1c[nH]cn1)NS(=O)(=O)c1ccc(Br)c2ccccc12 (centres unmarked) [I.3-106] |  | >5 |  | EF (BRSNS): Efficacy = percentage reduction in the intensity of damage ([2]; dosage 25 g/ha): >5% |
| CCOC(=O)CC(NS(=O)(=O)c1ccc(OC)cc1)C(C)C (centres unmarked) [I.37-28] | >5 | >5 |  |  |
| CCCC(NS(=O)(=O)c1ccc(OC)cc1)C(=O)OC (centres unmarked) [I.37-73] |  | >5 |  | EF (BRSNS): Efficacy = percentage reduction in the intensity of damage ([2]; dosage 25 g/ha): >5% |
| COC(=O)C(NS(=O)(=O)c1ccc(OC)cc1)C(C)C (centres unmarked) [I.37-75] | >5 |  |  |  |
| COC(=O)C(Cc1cccnc1)NS(=O)(=O)c1ccc(OC)cc1 (centres unmarked) [I.37-82] | >5 |  | >5 |  |
| C#CCC(NS(=O)(=O)c1ccc(OC)cc1)C(=O)OC (centres unmarked) [I.37-86] |  | >5 |  | EF (ZEAMX): Efficacy = percentage reduction in the intensity of damage ([1]; dosage 250 g/ha): >5% |
| COC(=O)C(Cc1ccc(F)cc1)NS(=O)(=O)c1ccc(OC)cc1 (centres unmarked) [I.37-90] | >5 |  |  | EF (ZEAMX): Efficacy = percentage reduction in the intensity of damage ([1]; dosage 25 g/ha): >5% |
| COC(=O)C(COC(C)(C)C)NS(=O)(=O)c1ccc(OC)cc1 (centres unmarked) [I.37-91] | >5 |  |  | EF (ZEAMX): Efficacy = percentage reduction in the intensity of damage ([1]; dosage 25 g/ha): >5% |
| CCOC(=O)CC(NS(=O)(=O)c1c(C)cccc1C)C(C)C (centres unmarked) [I.52-28] |  |  |  | EF (BRSNS): Efficacy = percentage reduction in the intensity of damage ([2]; dosage 25 g/ha): >5% |
